IC50 and Ki data for one molecule are collected here from patent publication US9302991B2, “Arylamide derivatives as TTX-S blockers” (RaQualia Pharma Inc., priority 2010, dated 2016).

Structures are written as SMILES.

Holding throughout (assay type): cell-based
In one assay the target is T1, human Nav1.3 channels (Homo sapiens, UniProt Q9NY46).
T1 construct: expressed in transfected cells; host or cells: HEK293
The experiment in a line: FRET assay, human Nav1.3 (EFS on FDSS). The settings on record: HEK293 cells expressing human Nav1.3, read-out: IC50 against Nav1.3. An outline of the steps:
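HEK293 cells expressing the channel, loaded with 10 microM CC2-DMPE then 15 microM DiSBAC2(3) plus 0.555 mM VABSC-1 in pH 7.4 HEPES buffer at room temperature. Membrane potential changes evoked by electrical field stimulation after compound addition; IC50 from 440 nm-normalized FRET ratios.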

In another assay the target is T2, human Nav1.5 channels (Homo sapiens, UniProt Q14524).
T2 construct: expressed in transfected cells; host or cells: HEK293
The experiment in a line: FRET assay, human Nav1.5 (EFS on FDSS). The note with it: HEK293 cells expressing human Nav1.5, read-out: activities against Nav1.5. Here is the method:
The inhibitory activities of compounds against voltage gated sodium channels are determined by methodology well known in the art.
The ability of the aryl substituted carboxamide derivatives of the formula (I) to inhibit the NaV1.3, Nav1.7 and Nav1.5 channels is measured by Fluorescence Resonance Energy Transfer (FRET) assay and electrophysiology assay described below.
This screen is used to determine the effects of compounds on human Nav1.3, human Nav1.7, and human Nav1.5 channels, utilising electrical field stimulation (EFS) system in 96-well plate format on FDSS (Hamamatsu Photonics) platform. The change of membrane potential is monitored with FRET dye pair, oxonol (DiSBAC2(3)) and coumarin (CC2-DMPE).
Each HEK293 cells expressing human Nav1.3 channels and HEK293 cells expressing human Nav1.5 channels are grown in T225 flasks, in a 5% CO2 humidified incubator to about 80% confluence. Media composition consists of Dulbecco's Modified Eagle Medium (high glucose), 10% FCS, 100 units/mL Penicillin, 100 microgram/mL Streptomycin and 500 microgram/mL Geneticine. […]
The data are analyzed and reported as normalized ratios of intensities measured at […]. […]
This analysis is performed using a computerized specific program designed for FDSS generated data. Fluorescence ratio values are plotted using XLfit to determine an IC50 value for each compound.

In the next assay the target is T3, human Nav1.7 (hSCN9A) (Homo sapiens, UniProt Q15858).
T3 construct: expressed in transfected cells; host or cells: CHO
In words: Electrophysiology assay for Navs, whole cell patch clamp, Nav1.7. The note with it: Kinact, dissociation constant for the inactivated state, read-out: activities (Ki) against Nav1.7. Here is the method: Electrophysiology Assay for Navs
Whole cell patch clamp recording is used to assess the efficacy or selectivity of Na channel blocker on human Nav1.3 (hSCN3A) expressing HEK293 cells or human Nav1.7 (hSCN9A) expressing CHO cells. Human Nav1.3 expressing HEK293 cells are grown in growth media which comprised: DMEM, 10% heat-inactivated FBS (Hyclone Laboratories Inc), 100 microgram/mL Penicillin/100 U/mL Streptomycin, 150 microgram/mL Zeocin, 3 microgram/mL Geneticin. Human Nav1.7 expressing CHO cells are grown in growth media which comprised: HAM/F-12, 9% heat-inactivated FBS (Hyclone Laboratories Inc), 100 microgram/mL Penicillin/100 U/mL Streptomycin, 100 microgram/mL Hygromycin.
Na channel expressing cells are dissociated by 0.05% Trypsine-EDTA, and then seeded on cover glass for 24-48 hr. […]
The normalized steady-state inactivation curve is constructed using 2 sec (for vehicle) or 60 sec (for drugs) conditioning pulse to different potentials followed immediately by the test pulse to −10 mV. […] The affinity of drugs to resting state of Na channels (Kresting or Kr) is assessed by 30 msec test pulse from a negative holding potential of −120 or −130 mV, where virtually all channels are in the resting state. Kr value is calculated by a conventional 1:1 binding model: Kresting(Kr)={[drug]Imax,drug/(Imax,control−Imax,drug)} […]
Background: In patch-clamp work, channel activity is measured electrically.

T3 sequence (Q15858 whole entry): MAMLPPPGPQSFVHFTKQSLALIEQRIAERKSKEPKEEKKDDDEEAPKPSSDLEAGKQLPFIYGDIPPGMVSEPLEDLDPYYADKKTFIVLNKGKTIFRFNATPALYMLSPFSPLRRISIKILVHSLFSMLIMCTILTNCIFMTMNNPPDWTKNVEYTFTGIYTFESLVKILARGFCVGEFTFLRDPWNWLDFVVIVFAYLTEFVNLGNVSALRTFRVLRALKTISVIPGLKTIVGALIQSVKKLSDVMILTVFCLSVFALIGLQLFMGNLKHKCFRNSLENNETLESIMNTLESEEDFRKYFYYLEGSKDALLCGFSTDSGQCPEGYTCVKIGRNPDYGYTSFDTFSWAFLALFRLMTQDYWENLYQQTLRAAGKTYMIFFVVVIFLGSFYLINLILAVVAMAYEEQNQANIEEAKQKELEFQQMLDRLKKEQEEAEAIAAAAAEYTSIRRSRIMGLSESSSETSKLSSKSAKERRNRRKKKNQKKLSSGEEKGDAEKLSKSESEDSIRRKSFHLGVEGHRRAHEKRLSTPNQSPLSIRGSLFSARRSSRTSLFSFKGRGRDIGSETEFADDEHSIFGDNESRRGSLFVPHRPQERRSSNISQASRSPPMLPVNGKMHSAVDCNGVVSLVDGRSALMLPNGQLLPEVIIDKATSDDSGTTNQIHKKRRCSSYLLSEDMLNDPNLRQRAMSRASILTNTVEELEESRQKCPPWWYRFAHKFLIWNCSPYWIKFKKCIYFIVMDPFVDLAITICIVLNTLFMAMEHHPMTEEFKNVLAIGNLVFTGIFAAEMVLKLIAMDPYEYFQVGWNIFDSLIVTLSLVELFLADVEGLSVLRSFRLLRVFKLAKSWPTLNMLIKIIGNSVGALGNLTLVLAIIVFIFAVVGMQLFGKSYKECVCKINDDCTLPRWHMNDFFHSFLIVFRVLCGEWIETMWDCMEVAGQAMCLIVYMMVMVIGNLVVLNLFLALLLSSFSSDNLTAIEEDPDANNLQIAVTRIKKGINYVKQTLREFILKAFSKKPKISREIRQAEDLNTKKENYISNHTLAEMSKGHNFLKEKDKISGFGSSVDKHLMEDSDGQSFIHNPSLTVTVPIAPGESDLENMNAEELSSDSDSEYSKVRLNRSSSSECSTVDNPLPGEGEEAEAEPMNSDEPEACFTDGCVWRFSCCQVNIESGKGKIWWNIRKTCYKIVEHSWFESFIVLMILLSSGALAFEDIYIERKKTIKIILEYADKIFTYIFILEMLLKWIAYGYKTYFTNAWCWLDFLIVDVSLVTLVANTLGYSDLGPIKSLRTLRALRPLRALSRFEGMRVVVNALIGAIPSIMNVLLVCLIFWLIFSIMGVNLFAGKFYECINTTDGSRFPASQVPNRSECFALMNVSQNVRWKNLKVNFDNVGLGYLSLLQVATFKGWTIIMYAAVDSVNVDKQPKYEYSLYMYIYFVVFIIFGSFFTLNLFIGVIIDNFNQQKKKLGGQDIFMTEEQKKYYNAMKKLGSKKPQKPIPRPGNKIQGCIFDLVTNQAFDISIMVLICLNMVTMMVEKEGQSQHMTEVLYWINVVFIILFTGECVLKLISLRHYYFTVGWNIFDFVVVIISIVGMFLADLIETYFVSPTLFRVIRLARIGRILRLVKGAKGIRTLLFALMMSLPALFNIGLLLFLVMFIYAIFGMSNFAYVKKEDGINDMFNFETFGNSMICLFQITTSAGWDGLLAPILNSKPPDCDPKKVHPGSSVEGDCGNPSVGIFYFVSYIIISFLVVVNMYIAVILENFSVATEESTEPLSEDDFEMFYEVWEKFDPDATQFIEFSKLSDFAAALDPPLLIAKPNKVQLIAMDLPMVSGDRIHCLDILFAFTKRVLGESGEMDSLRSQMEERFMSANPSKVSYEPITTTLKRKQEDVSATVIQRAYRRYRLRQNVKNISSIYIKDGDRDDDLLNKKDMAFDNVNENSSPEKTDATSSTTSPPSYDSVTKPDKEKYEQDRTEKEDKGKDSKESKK
T1 sequence (Q9NY46 whole entry): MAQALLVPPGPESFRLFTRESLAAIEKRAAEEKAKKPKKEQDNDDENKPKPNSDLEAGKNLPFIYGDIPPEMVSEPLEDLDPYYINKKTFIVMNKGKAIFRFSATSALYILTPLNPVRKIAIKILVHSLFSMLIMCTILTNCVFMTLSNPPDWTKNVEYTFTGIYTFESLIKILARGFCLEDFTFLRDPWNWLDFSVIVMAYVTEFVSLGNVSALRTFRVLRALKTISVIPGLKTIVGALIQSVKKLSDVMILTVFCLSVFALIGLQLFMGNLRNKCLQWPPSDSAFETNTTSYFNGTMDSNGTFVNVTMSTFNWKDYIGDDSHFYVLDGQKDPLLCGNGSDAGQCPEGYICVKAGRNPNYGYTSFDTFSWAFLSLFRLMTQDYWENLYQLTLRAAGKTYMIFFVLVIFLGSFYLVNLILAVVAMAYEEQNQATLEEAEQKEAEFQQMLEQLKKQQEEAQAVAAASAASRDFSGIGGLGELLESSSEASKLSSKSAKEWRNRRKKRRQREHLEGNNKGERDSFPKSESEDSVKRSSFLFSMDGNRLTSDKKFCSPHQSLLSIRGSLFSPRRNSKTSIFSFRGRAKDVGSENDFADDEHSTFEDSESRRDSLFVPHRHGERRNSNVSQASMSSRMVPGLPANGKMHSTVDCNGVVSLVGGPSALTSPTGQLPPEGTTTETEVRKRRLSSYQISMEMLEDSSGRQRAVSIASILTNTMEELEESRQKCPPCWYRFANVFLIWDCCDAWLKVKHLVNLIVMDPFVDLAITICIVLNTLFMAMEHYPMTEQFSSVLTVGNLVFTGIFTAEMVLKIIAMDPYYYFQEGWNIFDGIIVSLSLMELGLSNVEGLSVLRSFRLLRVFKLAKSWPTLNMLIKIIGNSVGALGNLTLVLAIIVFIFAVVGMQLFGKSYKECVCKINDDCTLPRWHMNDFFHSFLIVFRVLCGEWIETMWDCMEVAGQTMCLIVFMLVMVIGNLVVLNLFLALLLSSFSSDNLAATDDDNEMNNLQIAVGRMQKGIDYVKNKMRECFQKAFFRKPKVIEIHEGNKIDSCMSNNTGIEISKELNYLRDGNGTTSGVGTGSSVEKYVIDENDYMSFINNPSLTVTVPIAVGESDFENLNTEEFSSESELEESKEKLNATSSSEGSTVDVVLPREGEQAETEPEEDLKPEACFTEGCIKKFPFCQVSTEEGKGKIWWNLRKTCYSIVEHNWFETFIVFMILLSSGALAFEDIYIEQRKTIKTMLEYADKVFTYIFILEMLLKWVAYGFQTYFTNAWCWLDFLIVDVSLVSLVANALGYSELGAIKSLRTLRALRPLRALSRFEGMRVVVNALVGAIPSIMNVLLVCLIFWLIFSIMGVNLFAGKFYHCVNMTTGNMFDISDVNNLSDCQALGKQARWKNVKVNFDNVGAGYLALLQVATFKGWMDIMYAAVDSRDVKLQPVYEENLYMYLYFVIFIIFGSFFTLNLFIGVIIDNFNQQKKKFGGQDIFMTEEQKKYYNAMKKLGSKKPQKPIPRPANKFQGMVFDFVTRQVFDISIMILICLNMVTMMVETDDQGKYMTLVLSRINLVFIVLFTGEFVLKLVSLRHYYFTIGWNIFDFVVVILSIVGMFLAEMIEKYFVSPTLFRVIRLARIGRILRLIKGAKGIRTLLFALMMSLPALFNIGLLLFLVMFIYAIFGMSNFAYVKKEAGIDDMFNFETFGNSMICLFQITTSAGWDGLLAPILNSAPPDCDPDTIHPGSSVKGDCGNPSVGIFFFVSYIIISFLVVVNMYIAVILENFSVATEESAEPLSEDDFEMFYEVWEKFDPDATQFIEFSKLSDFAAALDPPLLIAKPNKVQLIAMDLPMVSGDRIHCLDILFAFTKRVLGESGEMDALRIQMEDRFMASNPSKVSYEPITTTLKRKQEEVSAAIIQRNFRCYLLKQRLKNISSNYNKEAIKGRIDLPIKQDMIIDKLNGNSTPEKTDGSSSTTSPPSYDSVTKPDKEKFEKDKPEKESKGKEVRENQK

With `CC(=O)Nc1cc(C(=O)NC(C)c2ccc(OCC(F)(F)F)nc2)ccn1` (single isomer, unassigned; (-)) [Example 1, (−)-2-acetamido-N-(1-(6-(2,2,2-trifluoroethoxy)pyridin-3-yl)ethyl)isonicotinamide], the IC50 was 2800 nM at human Nav1.3 channels and over 30000 nM at human Nav1.5 channels. Besides, the Ki on human Nav1.7 (hSCN9A) was 1200 nM.
